According to US20040132764A1, “Antibiotics for the treatment of infections in acidic environments” (Morphochem Aktiengesellschaft fuer Kombinatorische Chemie, priority 2002, published 2004):
Values after ≈ are worked out from the molar mass of the structure shown. Read-outs that look alike come from different tables or passages of the source.

System: bacterial strains from the Morphochem collection
Assay: MIC determination by microdilution method (NCCLS guidelines, IsoSensitest broth) with pH of the test medium varied
Format: cell-based
Settings: strain not named
Method: MICs (minimal inhibitory concentrations) were determined by a microdilution method following NCCLS guidelines, except that IsoSensitest broth (Oxoid; Basingstroke, UK) was used (National Committee for Clinical Laboratory Standards “Methods for Dilution Antimicrobial Susceptibility Tests for Bacteria that Grow Aerobically”, 4th ed.; Approved standard: NCCLS Document M7-A4; National Committee for Clinical Laboratory Satandars: Villanova, Pa., USA, 1997). The medium was supplemented with 3% lysed horse blood for fastidious organisms. Serial dilutions in 96-well plates were prepared with the help of a Biomek 2000 robot. The pH of the test medium was varied from 7.8 to 6.4. The bacterial strains used were from the Morphochem collection. Clinical isolates were originally obtained from the Kantonspital Basel, Switzerland, and from other European and US hospitals.
pH-dependent antibacterial activity (MIC (μg/mL) at pH): […]

[1] = pH 6.4 of test medium, read-out: pH-dependent antibacterial activity (MIC at pH) 6.4
[2] = pH 6.8 of test medium, read-out: pH-dependent antibacterial activity (MIC at pH) 6.8
[3] = pH 7.4 of test medium, read-out: pH-dependent antibacterial activity (MIC at pH) 7.4
[4] = pH 7.8 of test medium, read-out: pH-dependent antibacterial activity (MIC at pH) 7.8

| SMILES | MIC [1] [µg/mL] | MIC [2] [µg/mL] | MIC [3] [µg/mL] | MIC [4] [µg/mL] |
| --- | --- | --- | --- | --- |
| CC(=O)NC[C@H]1CN(c2ccc(N3CCN(c4cc5c(cc4F)c(=O)c(C(=O)O)cn5C4CC4)CC3)c(F)c2)C(=O)O1 [Example 1, 7-(4-{4-[5-(acetylamino-methyl)-2-oxo-oxazolidin-3-yl]-2-fluoro-phenyl}-piperazin-1-yl)-1-cyclopropyl-6-fluoro-4-oxo-1,4-dihydro-quinoline-3-carboxylic Acid] | 0.03 (≈ 0.0516 µM) | 0.125 (≈ 0.215 µM) | 0.25 (≈ 0.43 µM) | 0.5 (≈ 0.86 µM) |
| CC(=O)NC[C@H]1CN(c2ccc(N[C@@H]3CCN(c4cc5c(cc4F)c(=O)c(C(=O)O)cn5C4CC4)C3)c(F)c2)C(=O)O1 [Example 4] | 0.03 (≈ 0.0516 µM) | 0.06 (≈ 0.103 µM) | 0.25 (≈ 0.43 µM) | 0.5 (≈ 0.86 µM) |
| CC(=O)NC[C@H]1CN(c2ccc(N3CCN(c4nc5c(cc4F)c(=O)c(C(=O)O)cn5C4CC4)CC3)c(F)c2)C(=O)O1 [Example 10] | 0.125 (≈ 0.215 µM) | 0.25 (≈ 0.429 µM) | 0.5 (≈ 0.858 µM) | 1 (≈ 1.72 µM) |
| CC(=O)NC[C@H]1CN(c2ccc(N3CCOCC3)c(F)c2)C(=O)O1 [linezolid, reference compound] | 0.5 (≈ 1.48 µM) | 0.5 (≈ 1.48 µM) | 1 (≈ 2.96 µM) | 1 (≈ 2.96 µM) |
